Results on ten compounds are retold here after PMC7702302, “Fragment-derived modulators of an industrial β-glucosidase” (Biochemical Journal, 2020).

Series [1] has as its target T1, TrBgl2 (Trichoderma reesei, UniProt O93785). In words: MUG cleavage fluorescent kinetic assay (AC50 / Amax / IC50). The class given is biochemical. The procedure: A fluorescent kinetic assay was performed for library screening of TrBgl2 using 500 µM 4-methylumbelliferyl-β-D-glucopyranoside (MUG) in a total volume of 150 µL per well. Compounds dissolved in DMSO were added to each well to yield a final concentration from 1 to 2 mM. The reactions were performed in 160 mM phosphate–citrate buffer in pH 6.0, initiated by adding 20 µL of the enzyme to give a final concentration of 100 nM and were assayed at 40°C. The fluorescent 4-methylumbelliferyl release was recorded continuously at 355 nm excitation and 460 nm emission for 20 s using a BMG Labtech POLARstar OPTIMA plate reader. Control experiments were performed to evaluate the possibility of interference from the intrinsic fluorescence of compounds in the library by repeating the assay in the absence of the enzyme.
(§1) Assays were carried out in a 96 well plate (Black Nunc F96 MicroWell Plates) at 40 and 45°C for TrBgl2 and CcBglA, respectively, in 160 mM phosphate–citrate buffer in pH 6.0 and 2.5% DMSO. Reactions were initiated by the addition of 20 µL of protein to a final concentration of 100 nM, followed by 5 s of shaking. The fluorescent 4-methylumbelliferyl release was recorded continuously at 355 nm excitation and 460 nm emission for 20 s using a BMG Labtech POLARstar OPTIMA plate reader. Rates were calculated using GraphPad Prism 5.0 as the slope of the curve of the collected data. Corrections were made to the detected gradients to adjust for the inner filter effect of MUG and convert the gradients into units of µmol min^−1 according to a standard curve for MUG. The initial slopes were fitted to sigmoidal dose-response curves using GraphPad Prism 5.0 and the AC50 values extracted. Inhibition of TrBgl2 by isofagomine (IC50) was determined in similar manner to the AC50 values.

In series [2] the target is T1, TrBgl2. In words: Michaelis-Menten and covariation kinetics with MUG. Type of series: biochemical. As for the experimental part:
Apparent KM and kcat values were calculated from a Michaelis–Menten curve fit to 9-point substrate titrations at a constant concentration of compounds. The covariation experiments used the same range of substrate concentrations across an activator and inhibitor concentration range. The data obtained from these experiments was fit to the nonessential activator and mixed-model inhibition equation, respectively.

The target of series [3] is T1, TrBgl2. Kind of series: STD NMR ligand-observed binding. To be noted: compound 500 µM, TrBgl2 20 µM; for binding to TrBgl2 by STD NMR: absence of isofagomine; for binding to TrBgl2 by STD NMR in presence of isofagomine: isofagomine 40 µM. As for the experimental part:
The samples contained 20 µM unlabelled TrBgl2, fragments at a concentration of 500 µM per compound and 100 µM sodium trimethylsilylpropanesulfonate (DSS) in 50 mM phosphate buffer containing 25 mM NaCl and 5% D2O at pH 6.0. The experiments were recorded by using a Bruker standard pulse sequence (stddiffesgp.3 [19]). The on-resonance frequency was set to 0.25 ppm and off-resonance irradiation was applied at 40 ppm. STD NMR spectra were collected with a total of 16 scans (NS), 5 s delay between the scans (d1), a saturation time of 4 s (d20) and 1.5 s acquisition time (AQ).

Another series is described as follows: Solubility of compound. The class given is physicochemical.
In the next series the test system is E367Q TrBgl2. In words: Thermal shift assay (TSA). The class given is binding, Trichoderma reesei. As for the experimental part:
Thermal shift screens were performed in 96-well polypropylene PCR plates (Agilent 401334) with a final volume 25 µL/well. […] Melting data were collected using an Agilent Stratagene Mx3005P rtPCR machine ramping from 25 to 95°C at 30 s per degree. Data were analysed with a combination of the Agilent MxPro software, MTS [16], JTSA (http://paulsbond.co.uk/jtsa) and the DSF analysis spreadsheet in Excel.

Series [4] addresses T1, TrBgl2. Kind of series: Protein-observed NMR chemical shift perturbation (1H-15N TROSY). The class given is binding. To be noted: compound 8 mM (8 also 16 mM), 15N TrBgl2 120 µM. The procedure: For backbone chemical shift perturbations (CSPs), each sample was prepared with 120 µM ^15N isotope-labelled TrBgl2 or E367Q TrBgl2, 8 mM or 16 mM of compound 8 or 10, 5 mM of MUG substrate and 100 µM DSS in 50 mM TRIS buffer containing 100 mM NaCl and 10% D2O at pH 8.0. The final DMSO concentration was usually not above 3.8%(v/v). ^1H-^15N TROSY spectra of the enzyme with DMSO in the buffer were collected as controls. ^1H-^15N TROSY spectra were collected by using a Bruker standard pulse sequence (trosyetf3gpsi) with 128 scans (NS), 1.5 s delay between the scans (d1), 35 ppm spectra width (SW), 256-time domain data size (TD) and 117 ppm irradiation carrier frequency offset (O1P).
For IVL methyl group CSPs, each sample was prepared with 250 µM of ^15N, ^13C, ^2H and IVL methyl group specifically labelled TrBgl2, 8 mM of compound 8, in 50 mM TRIS buffer containing 100 mM NaCl and 10% D2O at pH 8.0. The final DMSO concentration was usually not above 3.8% (v/v). ^1H-^13C HSQC spectra of the enzyme with DMSO in the buffer were collected as controls. ^1H-^13C HSQC spectra were recorded by using a Bruker standard pulse sequence (hsqcctetgpsp) with 8 scans (NS), 1.5 s delay between the scans (d1), 30 ppm spectra width (SW), 256-time domain data size (TD) and 15 ppm irradiation carrier frequency offset (O1P).

In a further series the test system is CcBglA. Kind of series: MUG cleavage assay on CcBglA (selectivity). The class given is biochemical, Clostridium cellulovorans. To be noted: MUG 500 µM, titration 63 µM to 8 mM. As for the experimental part: as §1
Setting [5] is: pH 6, titration of compound from 30 µM to 3.8 mM, substrate conc. 500 µM, read-out: Amax.
Setting [6] is: titration of compound from 30 µM to 3.8 mM, substrate conc. 500 µM.
The mark [7] stands for this setting: pH 6, titration of compound from 63 µM to 8 mM, substrate conc. 500 µM, read-out: Amax.
[8] abbreviates: titration of compound from 63 µM to 8 mM, substrate conc. 500 µM.
Where [9] appears, read: E367Q TrBgl2 in the presence of MUG (4 mM), compound 4 mM.
The mark [10] stands for this setting: apo E367Q TrBgl2, compound 4 mM, without MUG.

Molecules are shown by their SMILES. Where “and” joins values, the source holds several entries; their conditions need not be identical. Identical values can stand only once. Like-named read-outs stand apart in the source and are kept apart here.

One may read the AC50 as the concentration at which the activity in the assay is half-maximal. Read a high AC50 as activity only at high concentration. For orientation: solubility means the concentration that dissolves in the medium under given conditions. A lower solubility goes with little dissolved substance. A word on the IC50: it is the concentration at which inhibition is half-maximal. A high value points to weaker potency in that assay. Broadly, the inhibition is the change of the read-out against control, counted positive when it falls.

T1 sequence (O93785 entry or part of it): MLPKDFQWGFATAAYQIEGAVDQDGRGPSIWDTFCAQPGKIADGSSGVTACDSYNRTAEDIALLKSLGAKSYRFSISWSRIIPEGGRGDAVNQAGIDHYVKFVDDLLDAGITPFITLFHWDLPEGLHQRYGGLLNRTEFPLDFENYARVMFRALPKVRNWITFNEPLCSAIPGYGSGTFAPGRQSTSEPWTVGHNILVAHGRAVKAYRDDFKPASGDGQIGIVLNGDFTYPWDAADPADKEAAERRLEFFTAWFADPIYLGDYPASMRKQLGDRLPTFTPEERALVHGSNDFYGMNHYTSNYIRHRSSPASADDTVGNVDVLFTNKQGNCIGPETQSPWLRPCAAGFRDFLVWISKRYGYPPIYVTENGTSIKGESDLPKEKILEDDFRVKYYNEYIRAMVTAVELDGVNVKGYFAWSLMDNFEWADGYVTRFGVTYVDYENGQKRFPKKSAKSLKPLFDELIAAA

In the case of `Cc1cccc(C)c1NC(=S)N1CCOCC1` [Compound 1], the AC50 at TrBgl2 [1] (MUG substrate 500 μM) was 1000 µM and ~1000 µM. The Emax on TrBgl2 [1] (MUG substrate 500 μM, read-out: Amax (maximal activation obtained)) was ~155%. The “improvement in kcat/KM” value on TrBgl2 [2] (Michaelis-Menten analysis, MUG, in presence of 1 (3 mM) vs absence) is reported as “approximately 2 fold”. Further, at TrBgl2 [3], the “binding to TrBgl2 by STD NMR” value was “showed evidence of binding” and the “binding to TrBgl2 by STD NMR in presence of isofagomine” value (“binding to TrBgl2 … of isofagomine” for short) is reported as “binding was also observed”.

For the compound `S=C(Nc1ccccc1Cl)N1CCOCC1` [Compound 3], the Emax at TrBgl2 [1] (setting [5]) is 155%. Moreover, the AC50 at TrBgl2 [1] (setting [6]) was > 4000 µM.

On to `Cc1ccccc1NC(=S)N1CCOCC1` [Compound 4], for which the Emax at TrBgl2 [1] (setting [5]) is 139%. Further, half-maximal activity at TrBgl2 [1] (setting [6]) (AC50) was put at 1810 ± 96 µM.

For `Cc1ccc(C)c(NC(=S)N2CCOCC2)c1` [Compound 5], the Emax on TrBgl2 [1] (setting [5]) amounted to 160%. The AC50 at TrBgl2 [1] (setting [6]) is > 4000 µM.

Consider `COc1ccccc1NC(=S)N1CCOCC1` [Compound 6], for which the Emax at TrBgl2 [1] (setting [7]) worked out at 143%. For the same compound, the AC50 at TrBgl2 [1] (setting [8]) was > 4000 µM.

In the case of `Cc1cccc(C)c1NC(=S)N1CCCCC1CO` (centres unmarked) [Compound 7], the Emax on TrBgl2 [1] (setting [7]) stood at 161%. This compound registered an AC50 on TrBgl2 [1] (setting [8]) of 1530 ± 312 µM.

As for `CCN(CCO)C(=S)Nc1c(C)cccc1C` [Compound 8], the solubility in the series “Solubility of compound” was ≤ 16 mM. The “increase of Tm” value with E367Q TrBgl2 (setting [9]) is ~1.2 °C. Further, the “decrease of Tm” value with E367Q TrBgl2 (setting [10]) was ~1 °C. The “amide chemical shift changes on addition of compound (1H-15N TROSY)” value on TrBgl2 [4] is reported as “indicating a specific binding event”. Moreover, the Emax at TrBgl2 [1] (setting [7]) was ≤ 188%. Besides, the AC50 at TrBgl2 [1] (setting [8]) is > 4000 µM. In addition, on TrBgl2 [2] (covariation fit, MUG substrate), the “α modifier (nonessential activator model)” value is listed as 0.64 and the “β modifier (nonessential activator model, modifies kcat)” value is recorded as 1.5. At TrBgl2 [2] (in the presence of activator), the “enhancement of substrate affinity” value is “approximately 1.5 fold”. In addition, on TrBgl2 [3], the “binding to TrBgl2 by STD NMR” value is recorded as “clear signal intensity” and the “binding to TrBgl2 … of isofagomine” value is listed as “clear signal intensity”.

With `Cc1cccc(C)c1NC(=S)NCCO` [Compound 9], on TrBgl2 [1] (setting [5]), the Emax was 128%. In addition, the AC50 at TrBgl2 [1] (setting [6]) is > 4000 µM.

Turning to `S=C(Nc1ccc2nccnc2c1)N1CCOCC1` [Compound 10], in the series on E367Q TrBgl2 (setting [9]), the “decrease of Tm” value was ~4 °C. For the same compound, in the series with E367Q TrBgl2 (setting [10]), the “decrease of Tm” value was ~4 °C. For the same compound, the “amide chemical shift changes on addition of compound (1H-15N TROSY)” value at TrBgl2 [4] is given as “smaller but similar changes as seen for 8”. Besides, the IC50 against TrBgl2 [1] (setting [8]) amounted to 312 ± 32 µM. The inhibition at TrBgl2 [1] (titration of compound from 63 µM to 8 mM, substrate conc. 500 µM, read-out: Maximum inhibition) was determined as 96%. Further, on TrBgl2 [2] (covariation fit, MUG substrate), the “α modifier (reversible mixed inhibition model)” value amounted to 3.65. Besides, the “inhibition of CcBglA” value in the series with CcBglA is given as “inhibited both enzymes to a similar degree”. Besides, on TrBgl2 [3], the “binding to TrBgl2 by STD NMR” value was “clear signal intensity” and the “binding to TrBgl2 … of isofagomine” value is listed as “clear signal intensity”.

As to `OC[C@H]1CNC[C@@H](O)[C@@H]1O` [isofagomine, reference compound], on TrBgl2 [1] (inhibition of TrBgl2, MUG substrate), inhibition was half-maximal at 0.53 ± 0.12 µM (IC50).
